According to patent publication US8343961B2, “Substituted heterocyclic compounds” (ArQule, Inc., priority 2009, dated 2013):

Experiments:
RET kinase = RET kinase (Homo sapiens, UniProt P07949); experiment: RET Kinase Activity Assay; format: biochemical; settings: read-out: Ret, % INH, at 30 uM
Method: (§1) The disclosed compounds were assayed for their ability to inhibit the activity of RET kinase. Nunc Maxwasorb plates were coated with streptavidin by overnight incubation with 100 μL per well of 1 μg/mL Streptavidin in DPBS. Prior to the start of the experiment, the plates were washed with TBST (3×200 μL) and blocked for at least 1 hour by adding 150 μL of 5% BSA/TBST. The plates were washed with TBST (3×200 4/well) and left dry immediately before the capture step.
The test articles and controls (Staurosporine and Sutent) were prepared using the following assay buffer @ 3× desired final concentration (50 mM […], 0.02 mg/mL BSA, 10 mM MgCl2, 0.1 mM Na3VO4, 1 mM EGTA, 75 μM ATP0.01% NP-40, 2 mM DTT in 10% glycerol/water). In a reaction plate, were added rapidly 20 μL test article (or control) and 20 μL RET (0.25 ng/4 final concentration). The plate was incubated for 15 minutes. To the reaction plate was added 20 μL of Pyk-2 (0.25 ng/4 final concentration). The plate was incubated at room temperature for one hour.
From the reaction plate, 50 μL was transferred to the streptavidin coated plate. The capture plate was incubated at room temperature for 30 minutes then washed 6× with TBST. To the capture plate was added 100 μL/well of Cell Signaling anti-phospho tyrosine at a dilution of 1:3000 in 2% BSA/TBST. The plate was incubated for one hour at room temperature then washed 6× with TBST. To the capture plate was added 100 μL/well of Alkaline Phosphatase Tagged Goat anti Mouse Antibody at a dilution of 1:4000 in 2% BSA/TBST. The plate was incubated for one hour at room temperature then washed 6× with TBST. The fluorescent readout was initiated by the addition of 100 μL/well of Attophos reagent (6 mg/10 mL). The reading was done on the Perkin Elmer Envision system.

Tec kinase = target: T1, Tec kinase (Homo sapiens, UniProt P42680); experiment: Tec Kinase Activity Assay; format: biochemical; settings: read-out: Tec % INH, at 30 uM
T1 sequence (P42680 1-631): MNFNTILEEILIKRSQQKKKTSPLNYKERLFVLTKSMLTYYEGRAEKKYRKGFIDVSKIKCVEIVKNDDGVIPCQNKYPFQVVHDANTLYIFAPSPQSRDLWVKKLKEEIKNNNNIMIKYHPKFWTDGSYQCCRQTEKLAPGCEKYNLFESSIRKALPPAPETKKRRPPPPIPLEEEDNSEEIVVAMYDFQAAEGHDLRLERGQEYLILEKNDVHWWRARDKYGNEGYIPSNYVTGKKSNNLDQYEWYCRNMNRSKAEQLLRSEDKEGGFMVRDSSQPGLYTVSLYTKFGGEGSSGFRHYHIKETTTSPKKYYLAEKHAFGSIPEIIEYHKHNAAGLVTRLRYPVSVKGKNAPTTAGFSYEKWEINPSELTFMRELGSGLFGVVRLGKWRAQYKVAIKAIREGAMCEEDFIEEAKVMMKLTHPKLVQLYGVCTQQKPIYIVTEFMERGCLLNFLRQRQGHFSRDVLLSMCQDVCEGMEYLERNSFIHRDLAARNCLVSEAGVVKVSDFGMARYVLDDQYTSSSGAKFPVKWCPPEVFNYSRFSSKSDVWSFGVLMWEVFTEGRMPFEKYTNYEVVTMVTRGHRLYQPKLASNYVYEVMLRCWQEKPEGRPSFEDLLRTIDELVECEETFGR
Method: as §1, with “Tec” for “RET”, “Maxisorb” for “Maxwasorb”, “μL/well)” for “4/well)”
The test articles and controls (Staurosporine and Sutent) were prepared using the following assay buffer @ 3× desired final concentration (50 mM Tris-HCl, 0.02 mg/mL BSA, 10 mM MgCl2, 0.1 mM Na3VO4, 1 mM EGTA, 75 μM ATP0.01% NP-40, 2 mM DTT in 10% glycerol/water). In a reaction plate were added rapidly 20 μL test article (or control) and 20 μL TEC 0.25 ng/4. The plate was incubated for 30 minutes. To the reaction plate was added 20 μL of Pyk-2.5 ng/μL. The plate was incubated at room temperature for two hours. From the reaction plate, 50 μL was transferred to the streptavidin coated plate. The capture plate was incubated at room temperature for 30 minutes then washed 6× with TBST. To the capture plate was added 100 μL/well of Cell Signaling anti-phospho tyrosine at a dilution of 1:3000 in 2% BSA/TBST. The plate was incubated for one hour at room temperature then washed 6× with TBST. To the capture plate was added 100 μL/well of Alkaline Phosphatase Tagged Goat anti Mouse Antibody at a dilution of 1:4000 in 2% BSA/TBST. The plate was incubated for one hour at room temperature then washed 6× with TBST. The fluorescent readout was initiated by the addition of 100 μL/well of Attophos reagent (6 mg/10 mL). The reading was done on the Perkin Elmer Envision system.

Sequence of RET kinase (P07949 29-1114): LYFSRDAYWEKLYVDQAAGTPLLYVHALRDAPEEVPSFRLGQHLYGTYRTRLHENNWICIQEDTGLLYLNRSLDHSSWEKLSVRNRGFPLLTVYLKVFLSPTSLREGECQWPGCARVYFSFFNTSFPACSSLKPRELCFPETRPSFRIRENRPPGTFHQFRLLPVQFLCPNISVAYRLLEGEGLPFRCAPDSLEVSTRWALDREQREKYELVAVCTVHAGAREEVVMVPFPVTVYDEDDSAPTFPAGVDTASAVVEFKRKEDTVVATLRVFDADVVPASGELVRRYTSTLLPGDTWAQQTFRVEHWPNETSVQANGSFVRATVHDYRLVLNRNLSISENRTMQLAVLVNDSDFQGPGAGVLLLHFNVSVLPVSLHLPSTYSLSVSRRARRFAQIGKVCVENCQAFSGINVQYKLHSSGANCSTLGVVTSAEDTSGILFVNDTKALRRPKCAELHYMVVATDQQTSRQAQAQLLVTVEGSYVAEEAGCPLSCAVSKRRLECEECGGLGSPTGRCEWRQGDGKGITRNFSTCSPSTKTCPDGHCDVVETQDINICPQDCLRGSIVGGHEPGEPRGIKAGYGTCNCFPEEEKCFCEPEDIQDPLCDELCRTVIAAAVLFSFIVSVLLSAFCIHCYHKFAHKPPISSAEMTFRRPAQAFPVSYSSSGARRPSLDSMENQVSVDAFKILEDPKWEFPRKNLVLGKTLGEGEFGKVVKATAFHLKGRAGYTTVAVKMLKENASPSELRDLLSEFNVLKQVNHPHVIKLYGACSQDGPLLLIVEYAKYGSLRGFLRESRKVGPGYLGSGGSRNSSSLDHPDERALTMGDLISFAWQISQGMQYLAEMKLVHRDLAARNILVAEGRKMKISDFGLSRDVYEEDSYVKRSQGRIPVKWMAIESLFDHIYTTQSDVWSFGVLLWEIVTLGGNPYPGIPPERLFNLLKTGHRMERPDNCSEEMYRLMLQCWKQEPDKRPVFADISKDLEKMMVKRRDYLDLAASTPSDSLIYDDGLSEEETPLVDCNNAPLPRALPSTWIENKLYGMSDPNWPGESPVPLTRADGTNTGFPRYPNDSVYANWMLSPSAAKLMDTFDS

COc1cc2c(cc1OC)C(c1ccccc1Cl)N(c1nc(N)nc3[nH]cnc13)CC2 (stereo not shown) [Compound 48, 6-[1-(2-chlorophenyl)-6,7-dimethoxy-3,4-dihydroisoquinolin-2(1H)-yl]-9H-purin-2-amine]
inhibition at 30 µM (RET kinase): < 50% | inhibition at 30 µM (Tec kinase): < 50%

COc1cc2c(cc1OC)C(c1cccc(C(F)(F)F)c1)N(c1nc(N)nc3[nH]cnc13)CC2 (stereo not shown) [Compound 50, 6-{6,7-dimethoxy-1-[3-(trifluoromethyl)phenyl]-3,4-dihydroisoquinolin-2(1H)-yl}-9H-purin-2-amine]
inhibition at 30 µM (RET kinase): < 50% | inhibition at 30 µM (Tec kinase): < 50%
